Reference: US11065304B2, “Peptide pharmaceuticals for insulin resistance” (MEDERIS DIABETES, LLC, priority 2012, dated 2021)

Assays:
[1] = in water; cited from earlier work
[2] = system: db/db mice; experiment: In vivo assay in db/db mice (blood glucose, body weight, food consumption); conditions: for db/db mice - Mean Blood Glucose, 10 hr: 10 hr after first dose; for db/db mice - Mean Blood Glucose, 24 hr: 24 hr after first dose; for db/db mice - Mean Blood Glucose, 48 hr: 48 hr after first dose
Protocol: The 60 female db/db B6BKS (D) Leprdb/J (strain 000697) mice for this study were approximately 8 to 9 weeks old at arrival (Jackson Laboratory, Bar Harbor, Me.). […] One group of 8 female mice served as the vehicle control and received the vehicle, 0.2% BSA in saline, pH 7.4. One additional group of 8 female mice received the positive control article, liraglutide, at a dose level of 50 nmoles/kg. The test articles, vehicle, and positive control article were administered on Day 1, at approximately 0, 7, and 24 hours during the study via subcutaneous injection at a dose volume of 6 mL/kg.
Clinical observations were conducted at receipt, prior to randomization, and daily from Days 1 to 5. Body weights were measured and recorded at receipt, prior to randomization, and daily from Days 1 to 5. Food consumption was measured and recorded daily from Days 1 to 5. Blood samples for glucose analysis were collected pretest (Day −3) and at 0, 1, 2, 4, 8, 10, 24, 48, 72, and 96 hours following the first dose on Day 1. At study termination all animals were euthanized and the carcasses were discarded without further evaluation.

[3] = target: T1, glucagon R (Homo sapiens, UniProt P47871); experiment: DiscoveRx LeadHunter cellular assay, cAMP stimulation, glucagon receptor; assay type: cell-based
T1 construct: host or cells: CHO cells
T1 sequence (P47871 26-477): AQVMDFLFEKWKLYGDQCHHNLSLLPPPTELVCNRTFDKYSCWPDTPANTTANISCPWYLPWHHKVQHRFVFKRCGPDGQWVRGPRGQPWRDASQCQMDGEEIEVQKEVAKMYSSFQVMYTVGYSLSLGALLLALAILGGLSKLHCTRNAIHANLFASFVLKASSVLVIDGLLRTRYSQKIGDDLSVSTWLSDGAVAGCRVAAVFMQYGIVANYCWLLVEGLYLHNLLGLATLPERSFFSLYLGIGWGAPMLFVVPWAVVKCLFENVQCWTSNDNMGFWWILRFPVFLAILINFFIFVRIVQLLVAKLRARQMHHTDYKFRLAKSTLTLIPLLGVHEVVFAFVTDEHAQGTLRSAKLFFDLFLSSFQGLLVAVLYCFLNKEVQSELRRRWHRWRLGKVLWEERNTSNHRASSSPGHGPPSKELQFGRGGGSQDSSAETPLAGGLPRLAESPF
Protocol: (§1) § means superagonist A further series of cellular assays were carried out using standard cellular assays (DiscoveRx, LeadHunter assays) using readout of cAMP stimulation or arrestin activation. Compounds were weighed precisely in an amount of approximately 1 mg and shipped to DiscoveRx for dilution and assay.

[4] = target: GLP-1 R (Homo sapiens, UniProt P43220); experiment: DiscoveRx LeadHunter cellular assay, cAMP stimulation, GLP-1 receptor; assay type: cell-based
Sequence of GLP-1 R (P43220 24-463): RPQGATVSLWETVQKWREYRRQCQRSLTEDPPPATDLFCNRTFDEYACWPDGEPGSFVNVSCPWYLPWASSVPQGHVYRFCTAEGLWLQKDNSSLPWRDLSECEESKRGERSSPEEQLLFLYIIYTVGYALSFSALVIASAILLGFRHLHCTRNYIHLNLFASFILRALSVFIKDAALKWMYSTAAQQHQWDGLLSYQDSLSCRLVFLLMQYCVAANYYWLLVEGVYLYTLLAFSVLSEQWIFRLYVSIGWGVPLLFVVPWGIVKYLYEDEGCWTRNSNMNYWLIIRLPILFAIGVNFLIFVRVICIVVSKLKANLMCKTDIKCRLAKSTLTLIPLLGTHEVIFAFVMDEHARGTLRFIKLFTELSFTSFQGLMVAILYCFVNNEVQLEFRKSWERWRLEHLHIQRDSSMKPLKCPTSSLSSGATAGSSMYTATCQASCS
Protocol: as §1

Molecule | CMC (critical micelle concentration) [1] | db/db mice - Mean Blood Glucose, 0 hr ([2]; 250 nmole/kg s.c.) | db/db mice - Mean Blood Glucose, 10 hr ([2]; 250 nmole/kg s.c.) | db/db mice - Mean Blood Glucose, 24 hr ([2]; 250 nmole/kg s.c.) | db/db mice - Mean Blood Glucose, 48 hr ([2]; 250 nmole/kg s.c.) | EC50 [3] | further results
CCCCCCCCCCCCCCO[C@@H]1O[C@H](CO)[C@@H](O[C@@H]2O[C@@H](CO)[C@H](O)[C@@H](O)[C@@H]2O)[C@H](O)[C@H]1O (stereo in doubt) [Tetradecyl maltoside] | 0.01 mM | – | – | – | – | – | –
CCCCCCCCCCCCCO[C@@H]1O[C@H](CO)[C@@H](OC2OC(CO)C(O)C(O)C2O)[C@H](O)[C@H]1O (stereo in doubt) [Tridecyl maltoside] | 0.03 mM | – | – | – | – | – | –
CCCCCCCCCCO[C@@H]1O[C@H](CO)[C@@H](O[C@H]2O[C@H](CO)[C@@H](O)[C@H](O)[C@H]2O)[C@H](O)[C@H]1O [Decyl maltoside] | 1.8 mM | – | – | – | – | – | –
CCCCCCCCCCCCO[C@@H]1O[C@H](CO)[C@@H](O[C@H]2O[C@H](CO)[C@@H](O)[C@H](O)[C@H]2O)[C@H](O)[C@H]1O [Dodecyl-β-D-maltoside] | 0.17 mM | – | – | – | – | – | –
CCCCCCCCO[C@@H]1O[C@H](C(=O)NCCCC[C@H](NC(=O)[C@@H](NC(=O)[C@H](Cc2ccccc2)NC(=O)[C@H](CCC(=O)O)NC(=O)[C@@H]2CCCCNC(=O)CC[C@H](NC(=O)[C@H](CC(=O)O)NC(=O)[C@H](CC(C)C)NC(=O)[C@H](Cc3ccc(O)cc3)NC(=O)[C@H](CCCCN)NC(=O)[C@H](CO)NC(=O)[C@H](Cc3ccc(O)cc3)NC(=O)[C@H](CC(=O)O)NC(=O)[C@H](CO)NC(=O)[C@@H](NC(=O)[C@H](Cc3ccccc3)NC(=O)[C@@H](NC(=O)CNC(=O)[C@H](CCC(N)=O)NC(=O)C(C)(C)NC(=O)[C@@H](N)Cc3c[nH]cn3)[C@@H](C)O)[C@@H](C)O)C(=O)N[C@@H](CCC(N)=O)C(=O)N[C@@H](C)C(=O)N[C@@H](C)C(=O)N2)[C@@H](C)CC)C(=O)N[C@@H](Cc2c[nH]c3ccccc23)C(=O)N[C@@H](CC(C)C)C(=O)N[C@@H](CC(C)C)C(=O)N[C@@H](CCC(N)=O)C(=O)N[C@H](C(N)=O)[C@@H](C)O)[C@@H](O)[C@H](O)[C@H]1O [EU-A992, His1-Aib2-Gln3-Gly4-Thr5-Phe6-Thr7-Ser8-Asp9-Tyr10-Ser11-Lys12-Tyr13-Leu14-Asp15-Glu*16-Gln17 Ala18-Ala19-Lys*20-Glu21-Phe22-Ile23-Lys(N-omega(1-octylbeta-D-glucuronyl))24-Trp25-Leu26-Leu27-Gln28-Thr29-NH2] | – | 405 mg/dL | 104 mg/dL | 112 mg/dL | 130 mg/dL | 19 pM | –
CCCCCCCCCCCCO[C@@H]1O[C@H](CO[C@H]2O[C@H](C(=O)NCCCC[C@H](NC(=O)[C@@H](NC(=O)[C@H](Cc3ccccc3)NC(=O)[C@H](CCC(=O)O)NC(=O)[C@@H]3CCCCNC(=O)CC[C@H](NC(=O)[C@H](CC(=O)O)NC(=O)[C@H](CC(C)C)NC(=O)[C@H](Cc4ccc(O)cc4)NC(=O)[C@H](CCCCN)NC(=O)[C@H](CO)NC(=O)[C@H](Cc4ccc(O)cc4)NC(=O)[C@H](CC(=O)O)NC(=O)[C@H](CO)NC(=O)[C@@H](NC(=O)[C@H](Cc4ccccc4)NC(=O)[C@@H](NC(=O)CNC(=O)[C@H](CCC(N)=O)NC(=O)C(C)(C)NC(=O)[C@@H](N)Cc4c[nH]cn4)[C@@H](C)O)[C@@H](C)O)C(=O)N[C@@H](CCC(N)=O)C(=O)N[C@@H](C)C(=O)N[C@@H](C)C(=O)N3)[C@@H](C)CC)C(=O)N[C@@H](Cc3c[nH]c4ccccc34)C(=O)N[C@@H](CC(C)C)C(=O)N[C@@H](CC(C)C)C(=O)N[C@@H](CCC(N)=O)C(=O)N[C@H](C(N)=O)[C@@H](C)O)[C@H](O)[C@H](O)[C@H]2O)[C@@H](O)[C@H](O)[C@H]1O [EU-A1023, His1-Aib2-Gln3-Gly4-Thr5-Phe6-Thr7-Ser8-Asp9-Tyr10-Ser11-Lys12-Tyr13-Leu14-Asp15-Glu*16-Gln17 Ala18-Ala19-Lys*20-Glu21-Phe22-Ile23-Lys(N-omega(1-dodecylbeta-D-melibiouronyl))24-Trp25-Leu26-Leu27-Gln28-Thr29-NH2] | – | 508 mg/dL | 264 mg/dL | 194 mg/dL | 375 mg/dL | – | db/db mice - Mean Blood Glucose, 0 hr ([2]; 50 nmole/kg s.c.): 507 mg/dL; db/db mice - Mean Blood Glucose, 10 hr ([2]; 50 nmole/kg s.c.): 310 mg/dL; db/db mice - Mean Blood Glucose, 24 hr ([2]; 50 nmole/kg s.c.): 355 mg/dL; db/db mice - Mean Blood Glucose, 48 hr ([2]; 50 nmole/kg s.c.): 375 mg/dL
CCCCCCCCCCO[C@@H]1O[C@H](C(=O)NCCCC[C@H](NC(=O)[C@@H](NC(=O)[C@H](Cc2ccccc2)NC(=O)[C@H](CCC(=O)O)NC(=O)[C@@H]2CCCCNC(=O)CC[C@H](NC(=O)[C@H](CC(=O)O)NC(=O)[C@H](CC(C)C)NC(=O)[C@H](Cc3ccc(O)cc3)NC(=O)[C@H](CCCCN)NC(=O)[C@H](CO)NC(=O)[C@H](Cc3ccc(O)cc3)NC(=O)[C@H](CC(=O)O)NC(=O)[C@H](CO)NC(=O)[C@@H](NC(=O)[C@H](Cc3ccccc3)NC(=O)[C@@H](NC(=O)CNC(=O)[C@H](CCC(N)=O)NC(=O)C(C)(C)NC(=O)[C@@H](N)Cc3c[nH]cn3)[C@@H](C)O)[C@@H](C)O)C(=O)N[C@@H](CCC(N)=O)C(=O)N[C@@H](C)C(=O)N[C@@H](C)C(=O)N2)[C@@H](C)CC)C(=O)N[C@@H](Cc2c[nH]c3ccccc23)C(=O)N[C@@H](CC(C)C)C(=O)N[C@@H](CC(C)C)C(=O)N[C@@H](CCC(N)=O)C(=O)N[C@H](C(N)=O)[C@@H](C)O)[C@@H](O)[C@H](O)[C@H]1O [EU-A1167, His1-Aib2-Gln3-Gly4-Thr5-Phe6-Thr7-Ser8-Asp9-Tyr10-Ser11-Lys12-Tyr13-Leu14-Asp15-Glu*16-Gln17 Ala18-Ala19-Lys*20-Glu21-Phe22-Ile23-Lys(N-omega(1-decylbeta-D-glucuronyl))24-Trp25-Leu26-Leu27-Gln28-Thr29-NH2] | – | 379 mg/dL | 171 mg/dL | 117 mg/dL | 113 mg/dL | 19 pM | EC50 [4]: 13 pM
CCCCCCCCCCCO[C@@H]1O[C@H](C(=O)NCCCC[C@H](NC(=O)[C@@H](NC(=O)[C@H](Cc2ccccc2)NC(=O)[C@H](CCC(=O)O)NC(=O)[C@@H]2CCCCNC(=O)CC[C@H](NC(=O)[C@H](CC(=O)O)NC(=O)[C@H](CC(C)C)NC(=O)[C@H](Cc3ccc(O)cc3)NC(=O)[C@H](CCCCN)NC(=O)[C@H](CO)NC(=O)[C@H](Cc3ccc(O)cc3)NC(=O)[C@H](CC(=O)O)NC(=O)[C@H](CO)NC(=O)[C@@H](NC(=O)[C@H](Cc3ccccc3)NC(=O)[C@@H](NC(=O)CNC(=O)[C@H](CCC(N)=O)NC(=O)C(C)(C)NC(=O)[C@@H](N)Cc3c[nH]cn3)[C@@H](C)O)[C@@H](C)O)C(=O)N[C@@H](CCC(N)=O)C(=O)N[C@@H](C)C(=O)N[C@@H](C)C(=O)N2)[C@@H](C)CC)C(=O)N[C@@H](Cc2c[nH]c3ccccc23)C(=O)N[C@@H](CC(C)C)C(=O)N[C@@H](CC(C)C)C(=O)N[C@@H](CCC(N)=O)C(=O)N[C@H](C(N)=O)[C@@H](C)O)[C@@H](O)[C@H](O)[C@H]1O [EU-A1168, His1-Aib2-Gln3-Gly4-Thr5-Phe6-Thr7-Ser8-Asp9-Tyr10-Ser11-Lys12-Tyr13-Leu14-Asp15-Glu*16-Gln17 Ala18-Ala19-Lys*20-Glu21-Phe22-Ile23-Lys(N-omega(1-undecylbeta-D-glucuronyl))24-Trp25-Leu26-Leu27-Gln28-Thr29-NH2] | – | 380 mg/dL | 133 mg/dL | 169 mg/dL | 164 mg/dL | 140 pM | EC50 [4]: 70 pM
CCCCCCCCO[C@@H]1O[C@H](CO)[C@@H](O[C@H]2O[C@H](CO)[C@@H](O)[C@H](O)[C@H]2O)[C@H](O)[C@H]1O [Octyl maltoside] | 19.5 mM | – | – | – | – | – | –
Sucrose dodecanoate | 0.3 mM | – | – | – | – | – | –
